Test results as given in patent publication US20240140941A1, “DERIVATIVE OF 2,5-DIKETOPIPERAZINE COMPOUND, AND PREPARATION METHOD THEREFOR, PHARMACEUTICAL COMPOSITION THEREOF AND USE THEREOF” (DALIAN WZ PROBIOTICS AD HEALTH CO., LTD, priority 2020, published 2024).
Like-named read-outs stand apart in the source and are kept apart here. Blank lines part the entries; values can stand above or below the molecule they belong to.

How the values were obtained:
[1] = test system: NCI-H460; test: Inhibition test on cell proliferation (MTT), NCI-H460; assay type: cell-based, human
Method: (§1) Tumor cells (NCI-H460, BxPC-3, HT-29, HCC-LM3) in the logarithmic growth phase were digested, centrifuged, and the supernatants were removed. Cells were resuspended by adding fresh culture medium, and counted using a cell counting plate. 100 μL of culture medium (containing cells) was added to a 96-well plate according to the standard of 2000 to 6000 cells per well and incubated in an incubator (37° C., 5% CO2) for 24 hours. After the cells were completely adhered to the wall, the test sample and Plinabulin were diluted to different concentrations using fresh culture medium, and 4 wells were set for each concentration. After 72 hours of drug treatment, the culture medium was removed, and 20 μL of MTT at a concentration of 5 mg/mL was added to each well. After 3-4 hours in the incubator, the MTT was discarded, and 100 μL of DMSO was added to each well, and placed in a 96-well plate shaker to completely dissolve the purple formazan. Subsequently, the absorbance (OD value) was detected at a wavelength of 490 nm using a microplate reader. The experiment also required setting up zero-setting wells (blank culture medium, MTT, DMSO). Cell inhibition rate=1−(OD value of drug-dosed group−OD value of zero-setting group)/(OD value of blank group−OD value of zero-setting group)×100%.

[2] = test system: BxPC-3; test: Inhibition test on cell proliferation (MTT), BxPC-3; assay type: cell-based, human; settings: 72 hours of drug treatment, MTT; read-out: IC50 (nM) BxPC-3
Method: as §1

[3] = Homo sapiens, NCI-H460, 72 h, 72 hours of drug treatment, MTT, read-out: IC50 (nM) NCI-H460
[4] = 72 hours of drug treatment, MTT, read-out: IC50 (nM) NCI-H460
[5] = Homo sapiens, NCI-H460, 72 h, read-out: IC50 (nM) NCI-H460, 72 hours of drug treatment, MTT

SMILES: CC(C)c1c(/C=c2\[nH]c(=O)/c(=C/c3ccc(F)cc3)[nH]c2=O)ncn1CCCN1CCOCC1 [PLN-2-11, (3Z,6Z)-3-p-fluorobenzylidene-6-((5-isopropyl-1-(−3-morpholinyl)propylimidazol-4-yl)methylene)piperazine-2,5-dione]
- IC50 [1, 3]: 234 ± 25.7 nM

SMILES: O=c1[nH]/c(=C\c2ncn(CCCN3CCNCC3)c2C2CC2)c(=O)[nH]/c1=C\c1cccc(Oc2ccc(F)cc2)c1 [PLN-2-19-1]
- IC50 ([1]; read-out: IC50 (nM) NCI-H460, 72 hours of drug treatment, MTT): 204 ± 4.24 nM

SMILES: O=c1[nH]/c(=C\c2ncn(CCCN3CCNCC3)c2C2CC2)c(=O)[nH]/c1=C\c1cccc(Oc2ccc(F)cc2)c1 [PLN-2-19]
- IC50 [1, 5]: 213 ± 12.8 nM

SMILES: CN1CCN(CCCn2cnc(/C=c3\[nH]c(=O)/c(=C/c4cccc(Oc5ccc(F)cc5)c4)[nH]c3=O)c2C2CC2)CC1 [PLN-2-23]
- IC50 [1, 3]: 158 ± 25.7 nM

SMILES: CC(C)c1c(/C=c2\[nH]c(=O)/c(=C/c3cccc(C(=O)c4ccc(F)cc4)c3)[nH]c2=O)ncn1CCCN1CCN(C(=O)C23CC4CC(CC(C4)C2)C3)CC1 [PLN-2-39, (3Z,6Z)-3-(3-(p-fluorobenzoyl)phenyl)methylene-6-((5-isopropyl-1-(3-N-adamantanecarbonylpiperazinyl)propylimidazol-4-yl)methylene)piperazine-2,5-dione]
- IC50 [1, 5]: 37.2 ± 3.61 nM

The next lines start with the values.

- IC50 [2]: 2.48 ± 2.12 nM
- IC50 [1, 4]: 3.77 ± 0.62 nM
SMILES: CC1CN(CCCn2cnc(/C=c3\[nH]c(=O)/c(=C/c4cccc(C(=O)c5ccc(F)cc5)c4)[nH]c3=O)c2C(C)C)CC(C)O1 (stereo not shown) [PLN-2-12, (3Z,6Z)-3-(3-(p-fluorobenzoyl)phenyl)methylene-6-((5-isopropyl-1-((2,6-dimethyl)-3-morpholinyl)propylimidazol-4-yl)methylene)piperazine-2,5-dione]

- IC50 [2]: 14.9 ± 2.62 nM
- IC50 [1, 4]: 8.2 ± 0.54 nM
SMILES: CC1CN(CCCn2cnc(/C=c3\[nH]c(=O)/c(=C/c4cccc(C(=O)c5ccc(F)cc5)c4)[nH]c3=O)c2C(C)C)CC(C)O1 (stereo not shown) [PLN-2-13, (3Z,6Z)-3-(3-(p-fluorobenzoyl)phenyl)methylene-6-((5-isopropyl-1-((2,6-dimethyl)-3-morpholinyl)propylimidazol-4-yl)methylene)piperazine-2,5-dione]

- IC50 [1, 3]: 18.4 ± 2.95 nM
SMILES: CC(C)c1c(/C=c2\[nH]c(=O)/c(=C/c3cccc(C(=O)c4ccc(F)cc4)c3)[nH]c2=O)ncn1CCCN1CCN(Cc2ccccc2)CC1 [PLN-2-25, (3Z,6Z)-3-(3-(p-fluorobenzoyl)phenyl)methylene-6-((5-isopropyl-1-(3-N-benzylpiperazinyl)propylimidazol-4-yl)methylene)piperazine-2,5-dione]

- IC50 [1, 3]: 50.1 ± 0.69 nM
SMILES: CC(C)c1c(/C=c2\[nH]c(=O)/c(=C/c3cccc(C(=O)c4ccc(F)cc4)c3)[nH]c2=O)ncn1CCCN1CCN(c2ccc(F)cc2)CC1 [PLN-2-26, (3Z,6Z)-3-(3-(p-fluorobenzoyl)phenyl)methylene-6-((5-isopropyl-1-(3-N-(p-fluorophenyl)piperazinyl)propylimidazol-4-yl)methylene)piperazine-2,5-dione]

- IC50 [1, 3]: 7.3 ± 0.44 nM
SMILES: CC(C)c1c(/C=c2\[nH]c(=O)/c(=C/c3cccc(C(=O)c4ccc(F)cc4)c3)[nH]c2=O)ncn1CCCN1CCN(C(=O)C2CCCCC2)CC1 [PLN-2-38, (3Z,6Z)-3-(3-(p-fluorobenzoyl)phenyl)methylene-6-((5-isopropyl-1-(3-N-cyclohexanecarbonylpiperazinyl)propylimidazol-4-yl)methylene)piperazine-2,5-dione]

- IC50 [1, 3]: 11.1 ± 0.9 nM
SMILES: CC(C)c1c(/C=c2\[nH]c(=O)/c(=C/c3cccc(C(=O)c4ccc(F)cc4)c3)[nH]c2=O)ncn1CCCN1CCN(S(=O)(=O)c2ccccc2)CC1 [PLN-2-43, (3Z,6Z)-3-(3-(p-fluorobenzoyl)phenyl)methylene-6-((5-isopropyl-1-(3-N-phenylmethylsulfonylpiperazinyl)propylimidazol-4-yl)methylene)piperazine-2,5-dione]
